In patent publication US20090264384A1, “INDOLE, BENZIMIDAZOLE, AND BENZOLACTAM BORONIC ACID COMPOUNDS, ANALOGS THEREOF AND METHODS OF USE THEREOF” (Nuada, Inc., priority 2004, published 2009):

How the values were obtained:
Phosphodiesterase 2(h) = target: T1, Phosphodiesterase 2(h) (Homo sapiens, UniProt O00408); assay: Phosphodiesterase 2(h) enzyme assay; assay type: biochemical; details: Phosphodiesterase 2(h)
T1 construct: differentiated U-; endogenous in cells; host or cells: differentiated U-937 cells

Tyrosine hydroxylase = target: T2, Tyrosine hydroxylase (Rattus norvegicus, UniProt P04177); assay: Tyrosine hydroxylase enzyme assay; assay type: biochemical; details: Tyrosine hydroxylase
T2 construct: rat striatum; from tissue; host or cells: rat striatum

H3 = H3 binding assay; parameters: species or system rat
GABA transaminase = target: T3, GABA transaminase (Rattus norvegicus, UniProt P50554); assay: GABA transaminase enzyme assay; assay type: biochemical; details: GABA transaminase
T3 construct: rat brain; from tissue; host or cells: rat brain

CRF1 = target: T4, CRF1 (Rattus norvegicus, UniProt P35353); assay: CRF1 binding assay; details: Hill coefficient, reference compound
T4 construct: from tissue; host or cells: rat pituitary gland

[1] = target: Ca^2+ channel (L, verapamil site) (phenylalkylamines); assay: Ca^2+ channel (L, verapamil site) binding assay; parameters: species or system rat
GABA (non-selective) = assay type: binding, rat; details: Hill coefficient, reference compound
Progesterone(h) (PR) = Progesterone(h) (PR) binding assay; parameters: species or system human
NK3(h) = target: T5, NK3(h) (Homo sapiens, UniProt P29371); assay: NK3(h) binding assay; details: Hill coefficient, reference compound
T5 construct: expressed in transfected cells; host or cells: CHO cells

β1(h) = target: T6, β1(h) (Homo sapiens, UniProt P08588); assay: β1(h) binding assay; details: Hill coefficient, reference compound
T6 construct: expressed in transfected cells; host or cells: HEK-293 cells

M (non-selective) = M (non-selective) binding assay; parameters: species or system rat
H2(h) = target: T7, H2(h) (Homo sapiens, UniProt P25021); assay: H2(h) binding assay; details: Hill coefficient, reference compound
T7 construct: expressed in transfected cells; host or cells: CHO cells

P2Y = P2Y binding assay; parameters: species or system rat; details: reference compound
BZD (central) = BZD (central) binding assay; parameters: species or system rat; details: Hill coefficient, reference compound
σ (non-selective) = σ (non-selective) binding assay; parameters: species or system rat
Choline transporter = target: T8, Choline transporter (Rattus norvegicus, UniProt Q9JMD7); assay: Choline transporter binding assay; details: reference compound
T8 construct: rat striatum; from tissue; host or cells: rat striatum
T8 sequence (Q9JMD7 1-580): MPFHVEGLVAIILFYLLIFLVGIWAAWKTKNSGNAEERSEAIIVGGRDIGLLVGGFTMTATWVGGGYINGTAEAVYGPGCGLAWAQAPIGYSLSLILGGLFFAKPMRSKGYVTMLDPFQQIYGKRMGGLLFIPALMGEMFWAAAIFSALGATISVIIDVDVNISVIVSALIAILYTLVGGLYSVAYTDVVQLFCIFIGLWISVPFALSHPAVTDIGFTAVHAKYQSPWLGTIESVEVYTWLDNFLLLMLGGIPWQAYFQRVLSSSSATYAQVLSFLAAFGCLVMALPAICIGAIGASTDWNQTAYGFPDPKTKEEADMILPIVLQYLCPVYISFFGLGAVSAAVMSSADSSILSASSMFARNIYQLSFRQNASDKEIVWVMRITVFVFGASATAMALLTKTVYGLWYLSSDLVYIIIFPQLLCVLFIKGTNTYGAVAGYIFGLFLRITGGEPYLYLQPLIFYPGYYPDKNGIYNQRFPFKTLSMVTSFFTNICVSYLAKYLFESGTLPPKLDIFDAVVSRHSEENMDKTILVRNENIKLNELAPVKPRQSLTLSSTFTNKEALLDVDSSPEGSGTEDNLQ

Androgen(h) (AR) = target: T9, Androgen(h) (AR) (Homo sapiens, UniProt P10275, T878A); assay: Androgen(h) (AR) binding assay
T9 construct: LNCaP cells; endogenous in cells; host or cells: LNCaP cells (cytosol)

[2] = target: N (neuronal) (α-BGTX-insensitive) (Rattus norvegicus, UniProt P09483+P12390); assay: N (neuronal) (α-BGTX-insensitive) binding assay; details: Hill coefficient, reference compound
ATPase (Na^+/K^+) = target: T10, ATPase (Na^+/K^+) (Canis lupus familiaris, UniProt P50997); assay: ATPase (Na^+/K^+) enzyme assay; assay type: biochemical, dog; details: ATPase (Na^+/K^+)
T10 construct: dog kidney; from tissue; host or cells: dog kidney

AT2(h) = target: T11, AT2(h) (Homo sapiens, UniProt P50052); assay: AT2(h) binding assay; details: Hill coefficient, reference compound
T11 construct: expressed in transfected cells; host or cells: Hela cells

AT1(h) = target: T12, AT1(h) (Homo sapiens, UniProt P30556); assay: AT1(h) binding assay; details: Hill coefficient, reference compound
T12 construct: expressed in transfected cells; host or cells: CHO cells

5-HT (non-selective) = 5-HT (non-selective) binding assay; parameters: species or system rat; details: Hill coefficient, reference compound
D2S(h) = target: T13, D2S(h) (Homo sapiens, UniProt P14416); assay: biochemical; assay type: binding
T13 construct: expressed in transfected cells; host or cells: CHO cells

V2(h) = target: T14, V2(h) (Homo sapiens, UniProt P30518); assay: V2(h) binding assay
T14 construct: expressed in transfected cells; host or cells: CHO cells

B2(h) = target: T15, B2(h) (Homo sapiens, UniProt P30411); assay: B2(h) binding assay
T15 construct: expressed in transfected cells; host or cells: CHO cells

Y (non-selective) = Y (non-selective) binding assay; parameters: species or system rat; details: reference compound
TRH = TRH binding assay; parameters: species or system rat; details: reference compound
NK2(h) = target: T16, NK2(h) (Homo sapiens, UniProt P21452); assay: NK2(h) binding assay
T16 construct: expressed in transfected cells; host or cells: CHO cells

NK1(h) = target: T17, NK1(h) (Homo sapiens, UniProt P25103); assay: NK1(h) binding assay; details: Hill coefficient, reference compound
T17 construct: NK1(h); U-373MG cells; [Sar^9,Met(O2)^11]-SP; Heuillet et al. (1993); endogenous in cells; host or cells: U-373MG cells

ETA(h) = target: T18, ETA(h) (Homo sapiens, UniProt P25101); assay: ETA(h) binding assay
T18 construct: expressed in transfected cells; host or cells: CHO cells

ETB(h) = target: T19, ETB(h) (Homo sapiens, UniProt P24530); assay: ETB(h) binding assay; details: Hill coefficient, reference compound
T19 construct: expressed in transfected cells; host or cells: CHO cells

K^+V channel = K^+V channel binding assay; parameters: species or system rat

T3 sequence (P50554 28-500): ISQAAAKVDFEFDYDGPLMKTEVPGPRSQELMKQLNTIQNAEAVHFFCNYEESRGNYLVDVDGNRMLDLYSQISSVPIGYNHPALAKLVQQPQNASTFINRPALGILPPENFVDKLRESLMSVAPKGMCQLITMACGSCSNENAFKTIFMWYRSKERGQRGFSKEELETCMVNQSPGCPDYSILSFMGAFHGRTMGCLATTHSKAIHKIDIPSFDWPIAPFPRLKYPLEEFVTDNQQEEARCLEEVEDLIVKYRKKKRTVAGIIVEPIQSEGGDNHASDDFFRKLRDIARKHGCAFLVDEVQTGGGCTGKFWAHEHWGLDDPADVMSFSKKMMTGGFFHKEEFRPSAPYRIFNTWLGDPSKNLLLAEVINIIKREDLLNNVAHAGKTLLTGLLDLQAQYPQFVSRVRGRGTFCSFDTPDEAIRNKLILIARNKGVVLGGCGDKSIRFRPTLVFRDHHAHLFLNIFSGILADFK
T2 sequence (P04177 whole entry): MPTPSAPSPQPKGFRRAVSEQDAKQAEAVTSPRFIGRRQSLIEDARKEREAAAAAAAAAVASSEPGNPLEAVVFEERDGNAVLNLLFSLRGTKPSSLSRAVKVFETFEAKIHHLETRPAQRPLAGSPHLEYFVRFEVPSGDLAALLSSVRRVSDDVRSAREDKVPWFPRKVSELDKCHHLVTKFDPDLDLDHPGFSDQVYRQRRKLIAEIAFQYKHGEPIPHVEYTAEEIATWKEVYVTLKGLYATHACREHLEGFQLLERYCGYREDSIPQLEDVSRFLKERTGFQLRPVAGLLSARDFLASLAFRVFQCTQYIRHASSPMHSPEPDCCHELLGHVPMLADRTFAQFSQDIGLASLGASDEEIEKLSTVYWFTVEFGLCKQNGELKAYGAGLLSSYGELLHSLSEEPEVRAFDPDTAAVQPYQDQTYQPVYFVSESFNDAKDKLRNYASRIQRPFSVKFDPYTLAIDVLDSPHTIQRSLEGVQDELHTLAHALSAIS
T1 sequence (O00408 whole entry): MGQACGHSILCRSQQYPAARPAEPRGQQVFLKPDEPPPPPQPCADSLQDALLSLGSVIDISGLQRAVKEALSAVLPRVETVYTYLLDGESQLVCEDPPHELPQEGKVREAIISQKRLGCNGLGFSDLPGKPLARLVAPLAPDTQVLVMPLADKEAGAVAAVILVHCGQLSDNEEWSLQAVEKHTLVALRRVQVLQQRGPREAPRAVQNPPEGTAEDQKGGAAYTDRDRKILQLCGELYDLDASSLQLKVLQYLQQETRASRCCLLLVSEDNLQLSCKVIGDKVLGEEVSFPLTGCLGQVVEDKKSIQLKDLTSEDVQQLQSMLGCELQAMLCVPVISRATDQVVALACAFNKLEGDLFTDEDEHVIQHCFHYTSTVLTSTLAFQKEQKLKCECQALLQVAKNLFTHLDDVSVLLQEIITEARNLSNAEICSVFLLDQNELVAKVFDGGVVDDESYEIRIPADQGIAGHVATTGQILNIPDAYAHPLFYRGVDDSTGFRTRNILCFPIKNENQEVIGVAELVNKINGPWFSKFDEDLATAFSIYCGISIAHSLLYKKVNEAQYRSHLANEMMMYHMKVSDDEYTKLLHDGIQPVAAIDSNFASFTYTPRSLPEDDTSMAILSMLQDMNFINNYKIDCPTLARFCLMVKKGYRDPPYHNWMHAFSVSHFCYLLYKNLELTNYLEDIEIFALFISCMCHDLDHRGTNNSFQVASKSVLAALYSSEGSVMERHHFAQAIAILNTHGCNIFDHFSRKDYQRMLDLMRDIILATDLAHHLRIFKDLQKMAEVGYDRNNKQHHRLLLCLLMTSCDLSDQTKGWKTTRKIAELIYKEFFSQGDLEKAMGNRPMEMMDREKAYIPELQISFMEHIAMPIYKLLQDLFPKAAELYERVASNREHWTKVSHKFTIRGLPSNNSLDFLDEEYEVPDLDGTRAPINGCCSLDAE
T7 sequence (P25021 whole entry): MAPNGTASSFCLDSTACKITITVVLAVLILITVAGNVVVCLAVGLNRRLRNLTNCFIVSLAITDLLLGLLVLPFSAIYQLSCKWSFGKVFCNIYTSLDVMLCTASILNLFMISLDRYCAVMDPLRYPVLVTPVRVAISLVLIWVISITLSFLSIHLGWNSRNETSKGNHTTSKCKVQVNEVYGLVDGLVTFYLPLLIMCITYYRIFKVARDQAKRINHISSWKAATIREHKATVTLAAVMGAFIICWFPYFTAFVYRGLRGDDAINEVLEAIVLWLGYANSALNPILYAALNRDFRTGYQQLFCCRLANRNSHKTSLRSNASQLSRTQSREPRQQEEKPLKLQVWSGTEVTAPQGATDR
T17 sequence (P25103 whole entry): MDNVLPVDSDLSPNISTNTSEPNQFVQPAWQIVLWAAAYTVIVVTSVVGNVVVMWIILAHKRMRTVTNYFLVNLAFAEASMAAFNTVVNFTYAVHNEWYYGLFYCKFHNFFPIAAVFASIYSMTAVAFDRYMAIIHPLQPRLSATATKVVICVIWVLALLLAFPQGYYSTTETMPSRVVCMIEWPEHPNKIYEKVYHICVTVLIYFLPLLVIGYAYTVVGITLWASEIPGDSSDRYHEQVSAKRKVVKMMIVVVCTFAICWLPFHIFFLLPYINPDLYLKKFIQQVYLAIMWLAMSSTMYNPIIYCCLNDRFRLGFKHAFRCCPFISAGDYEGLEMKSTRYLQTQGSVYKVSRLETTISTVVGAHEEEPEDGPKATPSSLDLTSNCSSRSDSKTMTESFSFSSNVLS
T15 sequence (P30411 whole entry): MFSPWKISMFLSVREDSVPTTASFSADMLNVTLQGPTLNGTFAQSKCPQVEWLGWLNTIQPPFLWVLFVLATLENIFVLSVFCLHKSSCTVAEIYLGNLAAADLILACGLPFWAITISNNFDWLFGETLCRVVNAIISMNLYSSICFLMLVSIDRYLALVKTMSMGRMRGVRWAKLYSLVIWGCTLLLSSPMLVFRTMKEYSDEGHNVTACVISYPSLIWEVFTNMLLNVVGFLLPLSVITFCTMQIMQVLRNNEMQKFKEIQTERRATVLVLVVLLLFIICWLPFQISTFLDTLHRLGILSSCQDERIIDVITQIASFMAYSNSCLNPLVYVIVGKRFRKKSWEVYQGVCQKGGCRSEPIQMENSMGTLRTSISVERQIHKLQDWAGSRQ
T11 sequence (P50052 whole entry): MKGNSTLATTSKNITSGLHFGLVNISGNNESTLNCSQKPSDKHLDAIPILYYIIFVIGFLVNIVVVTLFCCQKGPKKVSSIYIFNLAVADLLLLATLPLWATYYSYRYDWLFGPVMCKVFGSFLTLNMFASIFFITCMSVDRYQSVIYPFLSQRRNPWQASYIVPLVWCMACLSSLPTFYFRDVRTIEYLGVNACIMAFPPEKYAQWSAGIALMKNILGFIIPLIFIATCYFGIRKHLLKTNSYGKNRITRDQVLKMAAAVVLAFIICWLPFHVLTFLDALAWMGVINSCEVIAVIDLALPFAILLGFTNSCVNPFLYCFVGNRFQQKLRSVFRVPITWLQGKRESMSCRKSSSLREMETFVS
T16 sequence (P21452 whole entry): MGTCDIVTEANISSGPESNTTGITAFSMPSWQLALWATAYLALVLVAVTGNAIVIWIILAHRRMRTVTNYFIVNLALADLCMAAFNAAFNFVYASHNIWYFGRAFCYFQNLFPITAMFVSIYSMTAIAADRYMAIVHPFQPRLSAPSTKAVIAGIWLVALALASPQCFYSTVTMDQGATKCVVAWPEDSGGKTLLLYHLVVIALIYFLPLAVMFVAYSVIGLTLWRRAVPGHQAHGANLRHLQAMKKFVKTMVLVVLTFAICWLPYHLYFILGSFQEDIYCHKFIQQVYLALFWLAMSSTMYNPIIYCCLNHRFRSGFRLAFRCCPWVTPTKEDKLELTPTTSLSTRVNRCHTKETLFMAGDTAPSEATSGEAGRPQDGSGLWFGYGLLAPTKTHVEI
T6 sequence (P08588 whole entry): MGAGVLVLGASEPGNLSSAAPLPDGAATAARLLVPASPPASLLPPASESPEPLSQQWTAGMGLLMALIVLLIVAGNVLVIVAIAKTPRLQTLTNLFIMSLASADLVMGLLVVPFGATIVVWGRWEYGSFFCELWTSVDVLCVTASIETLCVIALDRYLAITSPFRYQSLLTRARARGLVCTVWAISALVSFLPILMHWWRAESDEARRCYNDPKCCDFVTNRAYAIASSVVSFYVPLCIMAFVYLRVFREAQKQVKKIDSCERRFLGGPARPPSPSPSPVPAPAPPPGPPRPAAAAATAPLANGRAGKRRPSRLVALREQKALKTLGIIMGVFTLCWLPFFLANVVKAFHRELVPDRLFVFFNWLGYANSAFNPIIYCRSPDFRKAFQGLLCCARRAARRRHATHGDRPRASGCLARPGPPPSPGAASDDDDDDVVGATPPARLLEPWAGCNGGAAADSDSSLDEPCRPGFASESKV
T4 sequence (P35353 24-415): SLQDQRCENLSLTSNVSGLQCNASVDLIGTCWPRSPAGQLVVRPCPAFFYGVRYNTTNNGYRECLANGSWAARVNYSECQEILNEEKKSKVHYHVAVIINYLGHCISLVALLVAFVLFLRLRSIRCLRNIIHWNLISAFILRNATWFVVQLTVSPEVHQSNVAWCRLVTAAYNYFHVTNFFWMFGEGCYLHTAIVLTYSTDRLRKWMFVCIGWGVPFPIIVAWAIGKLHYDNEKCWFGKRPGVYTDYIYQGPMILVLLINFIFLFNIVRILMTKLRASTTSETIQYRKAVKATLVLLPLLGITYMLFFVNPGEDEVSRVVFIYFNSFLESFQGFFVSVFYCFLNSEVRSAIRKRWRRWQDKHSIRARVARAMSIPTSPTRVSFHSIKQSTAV

Compound: CCCCCC[C@@H]([C@@H](C)O)n1cnc2c(N)ncnc21 (racemic) [EHNA]
- nH (Phosphodiesterase 2(h); Hill coefficient): 0.4
- IC50 (Phosphodiesterase 2(h); reference compound): 4100 nM

Compound: N[C@@H](Cc1ccc(O)c(I)c1)C(=O)O [3-iodo L-tyrosine]
- nH (Tyrosine hydroxylase; Hill coefficient): 1.1
- IC50 (Tyrosine hydroxylase; reference compound): 990 nM

Compound: C[C@@H](N)Cc1cnc[nH]1 [(R)a-Me-histamine, (R)α-Me-histamine, reference compound]
- nH (H3): 1.0

Compound: NOCC(=O)O [AoAA]
- nH (GABA transaminase; Hill coefficient): 1.1
- IC50 (GABA transaminase; reference compound): 210 nM

Compound: CC[C@H](C)[C@H](NC(=O)[C@@H](NC(=O)[C@H](CCC(=O)O)NC(=O)[C@H](CCSC)NC(=O)[C@H](CC(C)C)NC(=O)[C@H](CCCCN)NC(=O)[C@H](CCCNC(=N)N)NC(=O)[C@H](CC(N)=O)NC(=O)[C@H](CO)NC(=O)[C@H](Cc1c[nH]cn1)NC(=O)[C@H](C)NC(=O)[C@H](CCC(N)=O)NC(=O)[C@H](CCC(N)=O)NC(=O)[C@H](C)NC(=O)[C@H](CC(C)C)NC(=O)[C@H](CCC(N)=O)NC(=O)[C@H](CCC(=O)O)NC(=O)[C@H](C)NC(=O)[C@H](CCCNC(=N)N)NC(=O)[C@H](C)NC(=O)[C@H](CCSC)NC(=O)[C@H](CCC(=O)O)NC(=O)[C@H](CC(C)C)NC(=O)[C@@H](NC(=O)[C@H](CCC(=O)O)NC(=O)[C@H](CCCNC(=N)N)NC(=O)[C@H](CC(C)C)NC(=O)[C@H](CC(C)C)NC(=O)[C@H](Cc1c[nH]cn1)NC(=O)[C@H](Cc1ccccc1)NC(=O)[C@@H](NC(=O)[C@H](CC(C)C)NC(=O)[C@H](CC(=O)O)NC(=O)[C@H](CC(C)C)NC(=O)[C@H](CO)NC(=O)[C@@H](NC(=O)[C@@H]1CCCN1C(=O)[C@@H]1CCCN1C(=O)[C@H](CCC(=O)O)NC(=O)[C@H](CCC(=O)O)NC(=O)[C@@H](N)CO)[C@@H](C)CC)[C@@H](C)O)C(C)C)[C@@H](C)CC)C(N)=O [CRF, reference compound]
- nH (CRF1): 0.6

Compound: COc1ccc(CCN(C)CCCC(C#N)(c2cc(OC)c(OC)c(OC)c2)C(C)C)cc1OC (centres unmarked) [D 600]
- Ki [1]: 0.84 nM
- nH [1]: 0.6

Compound: NCCCC(=O)O [GAGA, GABA, reference compound]
- nH (GABA (non-selective)): 1.3

Compound: CCC(=O)[C@@]1(C)CC[C@H]2[C@@H]3CCC4=CC(=O)CCC4=C3CC[C@@]21C [R 5020]
- IC50 (Progesterone(h) (PR)): 8.9 nM
- Ki (Progesterone(h) (PR)): 3 nM
- nH (Progesterone(h) (PR)): 1.1

Compound: CC[C@H](NC(=O)c1c(C)c(-c2ccccc2)nc2ccccc12)c1ccccc1 [SB 222200, reference compound]
- nH (NK3(h)): 1.1

Compound: CC(C)NCC(O)COc1ccc(CC(N)=O)cc1 (centres unmarked) [atenolol, reference compound]
- nH (β1(h)): 0.7

Compound: CN1[C@@H]2CC[C@H]1C[C@@H](OC(=O)C(CO)c1ccccc1)C2 (some centres unmarked) [atropine, reference compound]
- nH (M (non-selective)): 1.2

Compound: CN/C(=N/CCSCc1nc[nH]c1C)NC#N [cimetidine, reference compound]
- nH (H2(h)): 0.9

Compound: Nc1ncnc2c1ncn2[C@H]1C[C@H](O)[C@@H](COP(O)(=S)OP(=O)(O)OP(=O)(O)O)O1 (some centres unmarked) [dATPαS]
- nH (P2Y; Hill coefficient): 1.3
- IC50 (P2Y): 100 nM
- Ki (P2Y; Cheng Prusoff): 52 nM

Compound: CN1C(=O)CN=C(c2ccccc2)c2cc(Cl)ccc21 [diazepam, reference compound]
- nH (BZD (central)): 1.2

Compound: O=C(CCCN1CCC(O)(c2ccc(Cl)cc2)CC1)c1ccc(F)cc1 [haloperidol, reference compound]
- nH (σ (non-selective)): 0.6

Compound: C[N+]1(C)CCOC(O)(c2ccc(-c3ccc(C4(O)C[N+](C)(C)CCO4)cc3)cc2)C1.[Br-].[Br-] (centres unmarked) [hemicholinium-3]
- nH (Choline transporter; Hill coefficient): 0.7
- IC50 (Choline transporter): 8 nM
- Ki (Choline transporter; Cheng Prusoff): 5.5 nM

Compound: C[C@]1(O)CC[C@H]2[C@@H]3CCC4=CC(=O)CCC4=C3C=C[C@@]21C [methyltrienolone, reference compound]
- nH (Androgen(h) (AR)): 1.5

Compound: CN1CCCC1c1cccnc1 (centres unmarked) [nicotine, reference compound]
- nH [2]: 1.1

Compound: C[C@@H]1O[C@@H](O[C@H]2C[C@@H](O)[C@]3(CO)[C@H]4[C@H](O)C[C@]5(C)[C@@H](C6=CC(=O)OC6)CC[C@]5(O)[C@@H]4CC[C@]3(O)C2)[C@H](O)[C@H](O)[C@H]1O [ouabain]
- nH (ATPase (Na^+/K^+); Hill coefficient): 1.2
- IC50 (ATPase (Na^+/K^+); reference compound): 920 nM

Compound: CNCC(=O)N[C@@H](CCCN=C(N)N)C(=O)N[C@H](C(=O)N[C@@H](Cc1ccc(O)cc1)C(=O)N[C@H](C(=O)N[C@@H](Cc1cnc[nH]1)C(=O)N1CCC[C@H]1C(=O)N[C@@H](C)C(=O)O)C(C)C)C(C)C [saralasin, reference compound]
- nH (AT2(h)): 0.8
- nH (AT1(h)): 1.1

Compound: NCCc1c[nH]c2ccc(O)cc12 [serotonin, reference compound]
- nH (5-HT (non-selective)): 0.9

Compound: (+)butaclamol [reference compound]
- nH (D2S(h)): 1.2

Compound: AVP [reference compound]
- nH (V2(h)): 0.9

Compound: NPC 567 [reference compound]
- nH (B2(h)): 0.6

Compound: NPY
- nH (Y (non-selective); Hill coefficient): 1.3
- IC50 (Y (non-selective)): 0.99 nM

Compound: TRH
- nH (TRH; Hill coefficient): 0.9
- IC50 (TRH): 49 nM
- Ki (TRH; Cheng Prusoff): 30 nM

Compound: [N1e^10]-NKA(4-10) [reference compound]
- nH (NK2(h)): 0.7

Compound: [Sar^9,Met(O2)^11]-SP [reference compound]
- nH (NK1(h)): 0.9

Compound: endothelin-1 [endothelia-1, reference compound]
- nH (ETA(h)): 1.1

Compound: endothelin-3 [endothelia-3, reference compound]
- nH (ETB(h)): 2.4

Compound: α-dendrotoxin
- Ki (K^+V channel): 1.1 nM
- nH (K^+V channel): 3.1
